Test results: US20230271938A1, “BENZIMIDAZOLES FOR USE IN THE TREATMENT OF CANCER AND INFLAMMATORY DISEASES” (Capella Therapeutics, Inc., priority 2015, published 2023)

Assays:
Format in all cases: biochemical
Details in all cases: 1% DMSO
TXK = biological target: T1, TXK (Homo sapiens, UniProt P42681); experiment: Inhibition of TXK kinase
T1 sequence (P42681 1-527): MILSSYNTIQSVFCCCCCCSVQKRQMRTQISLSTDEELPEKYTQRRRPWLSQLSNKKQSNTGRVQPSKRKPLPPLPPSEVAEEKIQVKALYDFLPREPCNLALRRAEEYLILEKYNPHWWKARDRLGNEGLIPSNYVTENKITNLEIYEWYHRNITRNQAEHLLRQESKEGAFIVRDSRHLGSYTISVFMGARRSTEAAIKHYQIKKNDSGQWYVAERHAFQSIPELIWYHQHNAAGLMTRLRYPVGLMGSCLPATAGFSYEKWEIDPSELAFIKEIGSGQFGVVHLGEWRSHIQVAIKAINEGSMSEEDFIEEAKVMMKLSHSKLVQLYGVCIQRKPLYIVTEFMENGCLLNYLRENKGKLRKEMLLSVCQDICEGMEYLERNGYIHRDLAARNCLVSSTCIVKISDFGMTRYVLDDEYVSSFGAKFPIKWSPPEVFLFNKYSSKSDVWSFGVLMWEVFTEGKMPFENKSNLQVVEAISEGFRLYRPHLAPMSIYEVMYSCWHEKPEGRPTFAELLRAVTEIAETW
Text: (§1) The Z′-LYTE® biochemical assay is a fluorescence-based, coupled-enzyme assay based on the differential sensitivity of phosphorylated and non-phosphorylated peptides to proteolytic cleavage. A peptide substrate for a kinase is labeled with two fluorophores, one at each end, to form a FRET pair.
(§2) In the primary reaction, the kinase transfers the gamma-phosphate of ATP to a single tyrosine, serine, or threonine residue in the synthetic FRET-peptide substrate. In the secondary reaction, a site-specific protease recognizes and cleaves non-phosphorylated FRET-peptides. Cleavage disrupts FRET between the donor and acceptor fluorophores on the FRET-peptide, whereas uncleaved, phosphorylated FRET-peptides maintain FRET. An inhibitory activity of a compound is thus determined from its effect on the cleavage of the synthetic FRET-peptide substrate.
(§3) Inhibition of BMX, BTK, ITK, and TXK kinases by a test compound is determined in 50 mM HEPES, pH 7.5, 0.01% BRIJ-35, 10 mM MgCl2, and 1 mM EGTA in the presence of 1% DMSO by volume.
(§4) Inhibition of BMX, BTK, PIK3C-D, ITK, TEC, and TXK kinases by compound A2 was measured using one of the assays described in Examples 2A and 3A.

ITK = biological target: T2, ITK (Homo sapiens, UniProt Q08881); experiment: Inhibition of ITK kinase
T2 sequence (Q08881 1-620): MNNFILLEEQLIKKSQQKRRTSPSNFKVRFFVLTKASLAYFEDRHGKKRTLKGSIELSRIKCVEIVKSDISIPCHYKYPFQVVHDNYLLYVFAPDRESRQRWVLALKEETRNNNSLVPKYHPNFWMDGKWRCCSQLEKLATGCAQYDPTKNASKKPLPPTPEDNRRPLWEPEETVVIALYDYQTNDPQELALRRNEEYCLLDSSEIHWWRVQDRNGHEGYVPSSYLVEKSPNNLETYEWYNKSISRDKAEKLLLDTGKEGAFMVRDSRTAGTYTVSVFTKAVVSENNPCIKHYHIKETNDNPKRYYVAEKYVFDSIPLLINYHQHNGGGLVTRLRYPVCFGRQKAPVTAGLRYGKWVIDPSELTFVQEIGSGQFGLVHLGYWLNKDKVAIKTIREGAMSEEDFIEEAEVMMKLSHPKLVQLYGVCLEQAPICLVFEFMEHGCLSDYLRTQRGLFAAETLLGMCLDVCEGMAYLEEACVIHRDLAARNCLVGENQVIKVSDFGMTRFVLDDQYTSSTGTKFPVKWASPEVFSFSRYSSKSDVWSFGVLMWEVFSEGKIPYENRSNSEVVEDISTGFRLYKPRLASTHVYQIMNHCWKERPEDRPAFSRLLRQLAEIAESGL
Text: as §1
as §2, with “Cleavage disrupts FRET between the donor and acceptor fluorophores on the FRET-peptide, whereas uncleaved, phosphorylated FRET-peptides maintain FRET.” left out
as §3
Binding of an ALEXA FLUOR® conjugate or “tracer” to a kinase is detected by addition of a Eu-labeled anti-tag antibody. […] An inhibitory activity of a compound is thus determined from the extent of the FRET signal loss. Inhibition of ITK and TEC kinases by a test compound is determined in the presence of 1% DMSO.
as §4

BMX = biological target: T3, BMX (Homo sapiens, UniProt P51813); experiment: Inhibition of BMX kinase
T3 sequence (P51813 1-675): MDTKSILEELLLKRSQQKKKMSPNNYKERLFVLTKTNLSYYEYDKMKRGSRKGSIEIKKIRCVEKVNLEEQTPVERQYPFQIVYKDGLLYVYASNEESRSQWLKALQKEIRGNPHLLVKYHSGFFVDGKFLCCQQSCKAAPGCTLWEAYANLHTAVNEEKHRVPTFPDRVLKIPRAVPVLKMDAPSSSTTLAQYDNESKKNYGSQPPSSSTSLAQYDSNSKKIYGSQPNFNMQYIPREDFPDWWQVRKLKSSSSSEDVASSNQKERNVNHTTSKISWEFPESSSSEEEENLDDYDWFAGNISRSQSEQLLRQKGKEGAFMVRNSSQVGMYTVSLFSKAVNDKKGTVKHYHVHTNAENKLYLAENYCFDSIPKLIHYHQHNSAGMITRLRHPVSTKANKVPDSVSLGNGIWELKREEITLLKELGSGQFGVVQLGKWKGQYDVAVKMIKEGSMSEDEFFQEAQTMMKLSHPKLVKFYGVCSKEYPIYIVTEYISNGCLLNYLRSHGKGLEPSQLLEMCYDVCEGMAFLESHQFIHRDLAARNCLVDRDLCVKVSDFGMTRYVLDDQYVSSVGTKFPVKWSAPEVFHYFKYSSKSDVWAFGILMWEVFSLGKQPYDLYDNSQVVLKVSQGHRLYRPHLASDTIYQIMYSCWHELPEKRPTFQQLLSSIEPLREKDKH
Text: as §1, §2, §3, §4

- IC50 (TXK): ≤ 10 nM
- IC50 (ITK): ≤ 10 nM
- IC50 (BMX): ≤ 10 nM
Structure (SMILES): C=CC(=O)N1CCCC[C@@H](n2c(NC(=O)c3ccnc(C)c3)nc3cccc(OC4CCN(C(C)=O)CC4)c32)C1 [Compound A2, (R)-N-(7-((1-acetylpiperidin-4-yl)oxy)-1-(1-acryloylazepan-3-yl)-1H-benzo[d]imidazol-2-yl)-2-methylisonicotinamide]
- Inhibition (TXK): A (A represents a value no greater than 10 nM or no less than 90% inhibition)
- Inhibition (ITK): A (A represents a value no greater than 10 nM or no less than 90% inhibition)
- Inhibition (BMX): A (A represents a value no greater than 10 nM or no less than 90% inhibition)
